{"source": "patent EP3913370A1", "about": "“METHOD FOR DIAGNOSING CARCINOMAS USING IRGD AS A TUMOR MARKER BOOSTER” (Piiper, Albrecht, priority 2020, dated 2021)", "origin": "cited, not measured here", "key": {"[1]": {"settings": "in vivo"}, "[2]": {"settings": "human, in vivo"}}}
{"molecule": "N=C(N)NCCC[C@@H]1NC(=O)[C@@H](N)CSSC[C@@H](C(=O)O)NC(=O)[C@H](CC(=O)O)NC(=O)[C@@H]2CCCN2C(=O)CNC(=O)[C@H](CCCCN)NC(=O)[C@H](CC(=O)O)NC(=O)CNC1=O", "note": "[iRGD, CRGDKGPDC (SEQ ID No. 1)]", "values": [{"measurement": "toxicity associated with administration", "setting": "[1]", "value": "no toxicity"}, {"measurement": "toxicity in humans", "setting": "[2]", "value": "low toxicity"}]}
